No end group written: not given here.
What was measured:
[1] = target: T1, full-length FOXM1 (Homo sapiens, UniProt Q08050); experiment: Biotin-peptide Pulldown with Streptavidin Magnetic Beads; type: binding; details: biotin-labeled peptide, cell lysates (500 µg) with endogenous or exogenous FOXM1; Western Blotting
T1 sequence (Q08050 703-763 limits assumed): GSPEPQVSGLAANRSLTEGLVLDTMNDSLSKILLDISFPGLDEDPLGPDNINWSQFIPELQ
Procedure: (§1) SDS-PAGE gel electrophoresis and Coomassie brilliant blue staining were performed to measure peptide stability. […] Cells were collected at different post-treatment time points (0, 1, 2, 4, 8, 16, 24, 36, 48 h). […] D The docking of peptide P22 (106–126) to the FOXM1 C-terminus (PDB ID 6OSW) was created by Rosetta FlexPepDock and PyMOL. Left, the interface of peptide-protein interaction, the peptide was shown in cyan, and the C-terminus of FOXM1 was shown according to its electrostatic potential. Right, hydrogen bonds are formed by residues at the interface of peptide and protein interaction. […] Streptavidin magnetic beads were added to lysates to pull down the biotin-peptides/protein complexes. […] M1-21mut was used as the control.

[2] = target: T2, Flag-GFP-FOXM1(688–748) protein (Homo sapiens, UniProt Q08050); experiment: as above; type: binding; details: biotin-labeled peptide, 293T cell lysates (500 µg) expressing Flag-GFP-FOXM1(688–748); Western Blotting
T2 construct: expressing exogenous Flag-GFP-FOXM1(688-748) protein; expressed in transfected cells; host or cells: 293T (HEK-293T) cell lysates
T2 sequence (Q08050 688-748 isoform Q08050-2): T1 sequence (Q08050 703-763 limits assumed)
Excerpt: Fig. 1 Screening of TAT-106-126 peptide targeting FOXM1 protein. A An in silico peptide library (P1 to P24, 21-mer) was created from the FOXM1 N-terminus sequence (1-138aa) with a 5 amino acid shift window. The peptide candidates binding to FOXM1 C-terminus (PDB ID 6OSW) were selected by Rosetta FlexPepDock simulation and InterfaceAnalyzer calculation according to docking free energy (dG). B P20, P21, and P22 fused with the cell-penetrating TAT sequence (TAT-96-116, TAT-101-121, and TAT-106-126) were produced by solid-phase peptide synthesis. […] Data points indicated the fraction of GFP-M1(688–748)-bound peptides (ΔFNormal/Amplitude) at different concentrations and curves indicated the calculated fits. The error bars represented the standard error of three independent measurements. […] 48 h Later, trypan blue (0.4%) was added to each well for 3 min and the cells were fixed to 4% paraformaldehyde for imaging. […] The mean IC50 value (µM) for each peptide was obtained from three replicates. D The TAT-106-126 peptide was biotin-labeled and added to 293T cell lysates (500 µg) expressing exogenous Flag-GFP-FOXM1(688–748) protein. The lysates were incubated with Streptavidin magnetic beads to pull down biotin-peptide/protein complexes. Biotin and Flag-GFP-FOXM1(688–748) protein in samples were detected by Western Blotting. […] E Biotin-labeled TAT-106-126 or TAT was added to 293T cell lysates (500 µg). The lysates were incubated with Streptavidin magnetic beads to pull down biotin-peptide/protein complexes. Biotin and endogenous FOXM1 protein were detected by Western Blotting.
A Biotin-labeled peptides TAT-96-116, TAT-101-121, and TAT-106-126 were added to 293T cell lysates (500 µg) expressing exogenous Flag-GFP-FOXM1(688-748) protein (or Flag-GFP control lysates). The lysates were incubated with Streptavidin magnetic beads to pull down biotin-peptide/protein complexes. Biotin and Flag-GFP-FOXM1(688-748) protein in samples were detected by Western Blotting. […] Biotin and exogenous FOXM1 protein were detected by Western Blotting.

[3] = target: T3, interaction between FOXM1 and PLK1 (Homo sapiens, UniProt Q08050); experiment: Co-IP in 231-Flag-FOXM1-Ind cells; type: cell-based; details: doxycycline 200 ng/mL 24 h, M1-21 10, 20 µM or TAT-106-126 20, 40, 80 µM for 6 h
T3 construct: expressed in transfected cells; host or cells: MDA-MB-231 stably infected with pLVX-TetOne-Flag-FOXM1b lentivirus (231-Flag-FOXM1-Ind), doxycycline-induced
Excerpt: Number of repetitions = 3. […] Number of repetitions = 3. […] Number of repetitions = 3. […] GAPDH was used as a loading control.

[4] = system: MDA-MB-231 cells; experiment: Half-life of biotin-labeled peptides in living cells (Western blotting); type: in vitro ADME, human; details: biotin-labeled peptide 20 µM for 2 h, then fresh medium, cells collected 0-48 h, β-actin loading control
Procedure: as §1

T3 sequence (Q08050 1-748 isoform Q08050-2): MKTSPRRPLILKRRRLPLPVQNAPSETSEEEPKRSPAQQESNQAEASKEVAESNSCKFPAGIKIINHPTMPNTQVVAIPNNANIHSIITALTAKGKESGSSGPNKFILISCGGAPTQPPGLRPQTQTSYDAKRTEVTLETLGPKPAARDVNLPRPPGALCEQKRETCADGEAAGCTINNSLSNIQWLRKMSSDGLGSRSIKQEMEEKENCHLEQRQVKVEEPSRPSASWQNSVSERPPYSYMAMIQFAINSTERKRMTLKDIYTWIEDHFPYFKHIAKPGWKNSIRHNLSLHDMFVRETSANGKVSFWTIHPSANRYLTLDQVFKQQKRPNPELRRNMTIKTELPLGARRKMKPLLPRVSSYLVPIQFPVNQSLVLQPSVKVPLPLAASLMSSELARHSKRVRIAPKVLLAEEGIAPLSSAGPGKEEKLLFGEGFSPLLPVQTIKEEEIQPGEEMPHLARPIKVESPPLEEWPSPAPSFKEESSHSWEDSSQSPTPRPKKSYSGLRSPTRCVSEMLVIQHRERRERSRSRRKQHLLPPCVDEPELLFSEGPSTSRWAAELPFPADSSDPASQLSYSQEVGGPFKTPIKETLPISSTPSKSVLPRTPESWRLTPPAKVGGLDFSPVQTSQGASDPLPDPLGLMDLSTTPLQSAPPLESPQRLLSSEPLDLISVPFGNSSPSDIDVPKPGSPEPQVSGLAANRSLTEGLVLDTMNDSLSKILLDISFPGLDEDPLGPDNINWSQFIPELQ

Sequence	binding to full-length FOXM1 in Pulldown [1]	binding to FOXM1 C-terminus in Pulldown [2]	interaction between FOXM1 and PLK1 (Co-IP) [3]	Half-life in living MDA-MB-231 cells [4] [h]
GRKKRRQRRRKESGSSGPNKFILISCGGAPT [TAT-96-116]	neither of them effectively bound	interacted	–	–
GRKKRRQRRRFILISCGGAPTQPPGLRPQTQ [TAT-106-126]	capable of binding	capable of binding	comparable activity to M1-21	6.2
GRKKRRQRRRSGPNKFILISCGGAPTQPPGL [TAT-101-121]	neither of them effectively bound	interacted	–	–

— article PMC10286459 (Cell & Bioscience, 2023)
